{
  "source": "patent US20090118242A1",
  "about": "(AlgoRx, priority 2002, published 2009)",
  "key": {"[1]": {"system": "animal models of inflammatory (formalin test) pain", "conditions": "administered locally; cited from earlier work"}, "[2]": {"system": "patients", "conditions": "cited from earlier work"}, "[3]": {"system": "subjects with osteoarthritis of the knee", "assay": "Osteoarthritis of the Knee Safety Study: VAS pain score at the target knee", "assay_type": "in vivo, human", "procedure": "(§1) Each subject had 3 study visits: a Screening Day (Day −7 to −1), the Treatment Day (Day 0), and a Post-Treatment Day (scheduled for Day +2, +4, +7, or +14). On the Treatment Day the subject was randomized, pre-treatment evaluation was performed. The patients were brought into the procedure room, and a VAS pain score was taken (0 mm—no pain, 100 mm—extreme pain). Once the patient had marked his or her pain on the card, he/she was prepped for knee cannulation. Once the cannula was placed, the patient received by intra-articular infiltration, 3 mg/kg (maximum dose of 200 mg) of 2% lignocaine into the knee scheduled to be replaced.\n(§2) VAS pain scores as well as verbal reports were taken immediately following administration, as well as prior to knee replacement surgery. No subjects discontinued from the study due to adverse events.\nOn the Post-Treatment Day, study evaluation was performed followed by the scheduled knee replacement, with intra-operative bone and soft tissue biopsies performed for subsequent examination. […] This therefore left the 3 placebo and 9 active patients from the 4 day, 7 day, and 14 day cohorts."}, "[4]": {"design": "species or system human", "conditions": "in vivo", "procedure": "The pharmacokinetic parameters of Cmax, Tmax, AUC (0−tlast) and t½ were evaluated."}, "[5]": {"system": "subjects undergoing transpositional osteotomy (bunionectomy)", "assay": "Bunionectomy Efficacy Study: VAS pain at operation site and rescue medication", "assay_type": "in vivo, human", "conditions": "for VAS pain score at operation site (mean +/− SEM): 1000 μg into wound, n = 11", "procedure": "The primary efficacy endpoint was the proportion of subjects in each treatment group requiring opioid analgesia in the first 24 hours post-operatively. The proportions were compared amongst treatment groups using the Cochran-Haenszel test. Secondary efficacy end points included: i) proportion of subjects in each treatment group requiring opioid analgesia in the first 36 hour period post-operatively (Similarly, the proportions were compared amongst treatment groups using the Cochran-Haenszel test); ii) proportion of subjects in each treatment group requiring opioid analgesia in the 10 day period post-operatively (Similarly, the proportions were compared amongst treatment groups using the Cochran-Haenszel test); iii) time to first usage of opioid analgesia in each treatment group (a survival analysis approach will be used: the product-limit (Kaplan-Meier) method will be applied to time to first usage of opioid analgesia. The median time to first usage of opioid analgesia will be estimated in both treatment groups. Pairwise comparisons will be performed to test for equality of the survival curves between the 2 treatment groups using both the log-rank and the Wilcoxon test); iv) total usage of analgesia in each treatment group (the total usage of analgesia will be compared by an analysis of variance with treatment and center as independent variables. A pairwise comparison will be performed between the treatment groups); and v) VAS, assessment of pain at the site of operation in each treatment group. (The VAS score at each time point will be compared by an analysis of variance with treatment and center as independent variables. A pairwise comparison will be performed between the treatment groups). […] The efficacy analysis was performed on the data obtained ten days postoperatively. The safety analysis was performed based on the safety data for the entire study, including the 6 week and 12 week follow-up periods. The blind was broken at the time the efficacy analysis was performed. However, the individual treatment assignment was available to the statistical analysis group only. All other personnel involved in the study, including the Investigator, study monitor and proprietary staff, remained blinded until the entire study was completed.\nThe study was designed to include 40 evaluation subjects. […] Each subject had six (6) study visits: a Screening Day (Day −28 to −1), an Operation Day (Day 0), and four (4) Follow-up visits (scheduled for Days 3, 10 and weeks 6 and 12).\nOn Operation Day (Day 0) the following was performed: a) Pre-operation: Prior to the initiation of an ankle block, inclusion/exclusion criteria assessment was performed. […] Immediately prior to wound closure, the Investigator slowly dripped the study medication (4 mL) from a syringe into the wound, ensuring even tissue exposure. The wound was then be closed according to normal practices and procedures.\nIn the 24 hours following administration of study medication, vital signs (supine pulse rate and blood pressure) were recorded at 1, 2, 4 and 24 hours post administration. VAS assessment of pain at the operation site was performed at 1, 4, 8, 12 and 24 hours post administration. In those instances where VAS measurements coincide with blood sampling procedures, the VAS assessment was performed first. […] The quantity of each blood sample was 10 mL. Laboratory safety assessments, e.g., haematology, biochemistry, urinalysis were performed at 24 hours post administration. Adverse events were spontaneously reported by the subject and recorded. Rescue analgesia medication was provided to the subject if required (initially diclofenac 50 mg, repeated at 8-hourly intervals if necessary). When diclofenac was judged by the Investigator to provide inadequate pain relief then the subject was provided with alfentanil 1 mg, repeated at 6 hourly intervals, if necessary."}, "[6]": {"system": "subjects with osteoarthritis of the knee", "assay": "Osteoarthritis of the Knee Safety Study: safety and tolerability of intra-articular purified capsaicin with local anesthetic", "assay_type": "in vivo, human", "procedure": "The primary objective of the study was to evaluate the safety and tolerability of intra-articular capsaicin, when co-administered with intra-articular local anesthetic, compared to placebo, in subjects with end-stage osteoarthritis of the knee, already scheduled to receive knee replacements.\nThe study was designed to include 16 evaluation subjects. […] Sixteen subjects completed the study.\nPatients were treated randomly and in double-blind fashion in four treatment groups, with each group having a progressively longer interval between the intra-articular administration of study medication and subsequent total knee replacement (2, 4, 7, and 14 days). […] Gross and microscopic pathology analysis was completed for each treatment group before the next treatment group was treated.\nas §1, §2"}, "[7]": {"system": "rats", "conditions": "systemic, final doses of 25 mg/kg or less; cited from earlier work"}, "[8]": {"conditions": "1000 μg prior to wound closure, n=11"}, "[9]": {"conditions": "10, 100, 300 μg intra-articular"}},
  "note": "Values joined by “and” are separate entries in the source; they are usually repeats but may differ in a detail not shown here. Equal entries are not always repeated.",
  "data": [
    {"compound": "CNCCCN1c2ccccc2CCc2ccccc21", "note": "[desipramine]", "values": [
      {"measurement": "local antinociceptive action", "setting": "[1]", "result": "produced local antinociceptive actions"}
    ]},
    {"compound": "CN1C(C(=O)Nc2ccccn2)=C(O)c2ccccc2S1(=O)=O", "note": "[piroxicam]", "values": [
      {"measurement": "patients experiencing gross bleeding and ulceration", "setting": "[2]", "result": "up to 4%"}
    ]},
    {"compound": "CN(C)CCC=C1c2ccccc2CCc2ccccc21", "note": "[amitriptyline]", "values": [
      {"measurement": "local antinociceptive action", "setting": "[1]", "result": "produced local antinociceptive actions"}
    ]},
    {"compound": "COc1cc(CNC(=O)CCCC/C=C/C(C)C)ccc1O", "note": "[purified capsaicin, N-(4-hydroxy-3-methoxybenzyl)-8-methylnon-trans-6-enamide]", "values": [
      {"measurement": "VAS reduction, prior to administration versus day of surgery", "setting": "[3]; 9 active patients of the 4, 7 and 14 day cohorts, 10-300 μg pooled", "result": "62±14", "unit": "%"},
      {"measurement": "median decrease from baseline to pre-operative time point in VAS for pain at target knee, versus placebo", "setting": "[3]; all 3 capsaicin dose groups", "result": "substantially greater"},
      {"measurement": "treatment related indication of efficacy (VAS)", "setting": "[3]; any of the dose levels (10 μg, 100 μg, 300 μg)", "result": "No clear treatment related indication of efficacy"},
      {"measurement": "plasma concentrations in the 10 μg dose group compared with the 100 μg or 300 μg dose groups", "setting": "[4]", "result": "clearly lower"},
      {"measurement": "VAS pain score at operation site (mean +/− SEM)", "setting": "[5]; 8 hr", "result": "5.5 +/− 2.3"},
      {"measurement": "VAS pain score at operation site (mean +/− SEM)", "setting": "[5]; 12 hr", "result": "8.2 +/− 3.8"},
      {"measurement": "VAS pain score at operation site (mean +/− SEM)", "setting": "[5]; 24 hr", "result": "1.9 +/− 1.0"},
      {"measurement": "VAS pain score at operation site (mean +/− SEM)", "setting": "[5]; 48 hr", "result": "5.9 +/− 2.5"},
      {"measurement": "subjects who did not rescue in 72 hours", "setting": "[5]; [8]", "result": 6, "unit": "subjects"},
      {"measurement": "time at which individual subject required rescue", "setting": "[5]; [8]", "result": "1 h and 4 h and 5 h and 8 h and 12 h"},
      {"measurement": "duration of post-administration (hyper)algesic pain, individual subject", "setting": "[6]; 100 μg dose group", "result": 9, "unit": "min"},
      {"measurement": "duration of post-administration (hyper)algesic pain, individual subjects", "setting": "[6]; 300 μg dose group", "result": "17 minutes and 25 minutes (2×) and 42 minutes"},
      {"measurement": "effects on laboratory safety parameters or vital signs", "setting": "[6]; [9]", "result": "no treatment related effects on laboratory safety parameters or vital signs"},
      {"measurement": "effects on soft tissue, cartilage, or bone upon histopathological examination", "setting": "[6]; [9]", "result": "no treatment related effects on soft tissue, cartilage, or bone"},
      {"measurement": "erythema, edema, or hemorrhage at the site of injection", "setting": "[6]; [9]", "result": "no treatment related signs of erythema, edema, or hemorrhage"},
      {"measurement": "leakage of study drug from the joint space", "setting": "[6]; [9]", "result": "low leakage"},
      {"measurement": "systemic side effects", "setting": "[6]; [9]", "result": "No treatment related systemic side effects"},
      {"measurement": "gross and microscopic pathology", "setting": "[6]; knee tissue at replacement 2-14 days after dose", "result": "normal"},
      {"measurement": "effect on pain threshold", "setting": "[7]", "result": "did not elevate the pain threshold above normal range"}
    ]}
  ]
}
